The values below come from US12364672B2, “Esketamine for use in treating major depressive disorder” (priority 2018, dated 2025).

In series [1] the test system is human peripheral blood lymphocytes (HPBL).
Series [2] has the same test system. On the procedure: Toxicity (defined as ≥45% reduction in MI relative to the vehicle control) was evaluated at 9 concentrations, ranging from 0.0238 to 238 μg/ml, after exposure of HPBL to esketamine for 20 hours in the absence of S9 activation, or for 4 hours, either in the presence or absence of S9 activation, followed by a 16-hour recovery period.
The definitive chromosome aberration assay evaluated HPBL cells after exposure to esketamine for 20 hours in the absence of S9 activation, or for 4 hours, either in the presence of absence of S9 activation, followed by a 16-hour recovery. Positive controls for chromosomal aberrations in non-activated and S9-activated evaluations, respectively, consisted of mitomycin C (MMC, 0.6 and 0.3 μg/mL for the 4- and 20-hour exposures, respectively) and cyclophosphamide (CP, 2.5, 5, and 7.5 μg/mL). […] Initially, the doses selected for evaluation of chromosomal aberrations were 60, 120, and 238 μg/mL for the non-activated 4- and 20-hour treatment conditions; and 30, 60, and 200 μg/mL for the S9-activated 4-hour treatment condition.
This is another data set of the same source.

The subject of series [3] is C57Bl/6 strain mice. The series can be described thus: Tail suspension test, single dose. The settings on record: TST after 30 minutes. In kind it is in vivo, mouse. On the procedure: Ketamine and esketamine HCl solutions at dose levels of 7.5, 15 and 30 mg/kg were administered intraperitoneally (ip) to groups of 10 inbred C57Bl/6 strain mice. After 30 minutes animals were exposed to the tail suspension test (TST).

Series [4] has as its system C57Bl/6 strain mice. The series can be described thus: Tail suspension test, 7-day administration. In kind it is in vivo, mouse. On the procedure: Esketamine HCl solutions were administered intraperitoneally (ip) to 8 groups of 10 inbred C57Bl/6 strain mice divided to receive one of the following dose levels for 7 days:
1. saline 10 ml/kg ip once prior to TST
2. esketamine 15 mg/kg ip once on day 7 prior to TST
3. esketamine 30 mg/kg ip once on day 7 prior to TST
4. saline 10 ml/kg ip daily for 7-days
5. esketamine 7.5 mg/kg ip daily for 7-days
6. esketamine 15 mg/kg ip daily for 7-days
7. esketamine 30 mg/kg ip once on day 1+saline daily for 6 more days
8. esketamine 30 mg/kg ip once on day 1+esketamine 7.5 mg/kg for 6 more days.
30 minutes after the last treatment, the animals were exposed to the tail suspension test (TST).

The subject of series [5] is healthy male and female subjects. The series can be described thus: Single dose crossover study in healthy volunteers, treatment-emergent adverse events. In kind it is in vivo, human. The conditions noted are these: all treatments. From the text: A total of 128 TEAEs (treatment-emergent adverse event) were reported by 15 of 16 (94%) subjects of which 79 TEAEs reported by 14 of 16 (88%) subjects were to be related to the study drug. Overall, a total of 14 of 128 TEAEs reported by 4 (25%) subjects were of moderate severity and 114 of 128 TEAEs reported by 15 (94%) subjects were of mild severity. […] The most frequently occurring adverse events (reported more than twice) were headache, dizziness, hypokinesia, feeling abnormal, fatigue, euphoric mood inappropriate affect, nausea and hyperhidrosis. Table 4 presents the frequency of the most frequently reported related TEAEs as a percentage of the subjects that experienced an adverse effect per treatment.

The next series relates to liver of Crl:CD(SD) rats. The series can be described thus: In vivo single cell gel electrophoresis (comet) assay, liver. The conditions noted are these: some male animals given 75 mg/kg/day.

Each structure is given as a SMILES string.

Consider `N[C@]1(c2ccccc2Cl)CCCCC1=O` [(S)-norketamine, (2S)-2-(2-Chlorophenyl)-2-(amino) cyclohexanone], for which the “Toxicity (mitotic index)” value in series [1] was “not observed”.
For the compound `CN[C@]1(c2ccccc2Cl)CCCCC1=O` [esketamine, (2S)-2-(2-Chlorophenyl)-2-(methylamino) cyclohexanone], in series [2], the “Toxicity (≥45% reduction in MI relative to the vehicle control)” value is recorded as “not observed”. For the same compound, in series [2] (definitive assay, non-activated 4- and 20-hour treatment, any dose (30 to 238 μg/ml)), the “cytotoxicity (45% reduction in mitotic index relative to the vehicle control)” value is listed as “not observed”. Further, the “reduction of immobility time from the saline control group” value in the series with C57Bl/6 strain mice [3] (7.5 mg/kg ip) worked out at 27.0%; in the series with C57Bl/6 strain mice [3] (15 mg/kg ip), 43.6%; with C57Bl/6 strain mice [3] (30 mg/kg ip), 58.1%. The “efficacy in the TST vs 7-day saline control group” value with C57Bl/6 strain mice [4] (7.5 mg/kg ip daily for 7 days (Group 5)) was “did not exert any efficacy”. Also, the “decrease in immobility time” value in the series with C57Bl/6 strain mice [4] (15 mg/kg ip daily for 7 days (Group 6), not statistically significant) was ~35%; in the series with C57Bl/6 strain mice [4] (15 mg/kg ip once, acute (printed Group 3), p<0.007), 38.9%. In addition, in the series with C57Bl/6 strain mice [4] (30 mg/kg ip once on day 1 + 7.5 mg/kg for 6 more days (Group 8) vs Group 7, p=0.02), the “effect on time spent in immobility” value worked out at 53.4%. In the series with C57Bl/6 strain mice [4] (30 mg/kg ip once on day 1 + saline for 6 more days (Group 7)), the “immobility time 7 days after a single injection” value is listed as “no decline in immobility time”. In addition, the “severe TEAEs or SAEs” value in series [5] was “No severe TEAEs or SAEs”. The liver histopathology result in the series on liver of Crl:CD(SD) rats is reported as “Increased hepatocellular mitotic figures”.
Take `CNC1(c2ccccc2Cl)CCCCC1=O` (stereo not drawn) [ketamine, dl 2-(2-chlorophenyl)-2(methylamino) cyclohexanone]: in the series with C57Bl/6 strain mice [3] (30 mg/kg ip), the “reduction of immobility time from the saline control group” value is 71.2%.
